Assay results taken from the supplement of paper PMC5412046.
Counter-ions that a name gives are not always drawn.

Key:
SB.mhdgc-1 = test: AC50 for growth inhibition (viability) (log10 M); higher = less potent; details: SB.mhdgc-1 (hereditary c.1380delA CDH1 gastric cancer)
How it was run: (§1)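 Gastric cancer cells derived from patients with hereditary or sporadic disease were seeded at 500 cells in 5 μL medium per 1536 well. A pintool delivered 23 nL of compound in DMSO, as 11 threefold dilutions from a final 46 μM. After 48 h, CellTiter-Glo was added for 30 min at room temperature and luminescence was read on a ViewLux. The log half-maximal activity concentration was taken from a four-parameter fit of viability normalised to DMSO, using only high-quality curve classes.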

SB.msgc-1 = test: as above; details: SB.msgc-1 (sporadic gastric cancer)
How it was run: as §1

## CC(C)C1=C(O)C=C(O)C(=C1)C/2=N/NC(=O)N2C3=CC4=C(C=C3)[N](C)C=C4 [Ganetespib]
SB.mhdgc-1
  AC50 for growth inhibition (log10 M): -7.33
SB.msgc-1
  AC50 for growth inhibition (log10 M): -6.93

## Cc1cc(Nc2nc(N[C@@H](C)c3ccc(F)cc3)c(C#N)cc2F)n[nH]1 [AZ-960]
SB.mhdgc-1
  AC50 for growth inhibition (log10 M): -4.73
SB.msgc-1
  AC50 for growth inhibition (log10 M): -4.68

## NC/1=N/[C@]2(COC[C@H]2CS1)C3=CC(=CC=C3F)NC(=O)C4=NC=C(F)C=C4
SB.mhdgc-1
  AC50 for growth inhibition (log10 M): -5.93
SB.msgc-1
  AC50 for growth inhibition (log10 M): -5.48

## C=C1/C(=C\C=C2/CCC[C@]3(C)[C@@H]([C@H](C)/C=C/[C@H](C)C(C)C)CC[C@@H]23)C[C@@H](O)C[C@@H]1O [Doxercalciferol]
SB.mhdgc-1
  AC50 for growth inhibition (log10 M): -6.73
SB.msgc-1
  AC50 for growth inhibition (log10 M): -6.23

## CC1=C(C)C2=C(S1)[N]3C(=NN=C3[C@H](CC(=O)OC(C)(C)C)/N=C2/C4=CC=C(Cl)C=C4)C [JQ1]
SB.mhdgc-1
  AC50 for growth inhibition (log10 M): -5.28
SB.msgc-1
  AC50 for growth inhibition (log10 M): -5.38

## C=CCNC1=C2C[C@@H](C)C[C@H](OC)[C@H](O)[C@@H](C)/C=C(\C)[C@H](OC(N)=O)[C@@H](OC)/C=C\C=C(/C)C(=O)NC(=CC1=O)C2=O [Tanespimycin]
SB.mhdgc-1
  AC50 for growth inhibition (log10 M): -7.28
SB.msgc-1
  AC50 for growth inhibition (log10 M): -7.53

## CC(=O)O[C@H]1C[C@@H]2CC[C@@H]3[C@H](CC[C@@]4(C)[C@H]3C[C@H]([N+]3(C)CCCCC3)[C@@H]4OC(C)=O)[C@@]2(C)C[C@@H]1N1CCCCC1 [Vecuronium bromide]
SB.mhdgc-1
  AC50 for growth inhibition (log10 M): -5.93
SB.msgc-1
  AC50 for growth inhibition (log10 M): -5.58

## O=C(Nc1ccc(F)c(C(F)(F)F)c1)Nc1nnc(-c2ccncc2)s1
SB.mhdgc-1
  AC50 for growth inhibition (log10 M): -5.53
SB.msgc-1
  AC50 for growth inhibition (log10 M): -5.28

## CC(C)(C)NC(=O)[C@H]1CC[C@H]2[C@@H]3CC[C@H]4NC(=O)\C=C/[C@]4(C)[C@H]3CC[C@]12C [Finasteride]
SB.mhdgc-1
  AC50 for growth inhibition (log10 M): -6.23
SB.msgc-1
  AC50 for growth inhibition (log10 M): -5.78

## COc1cccc2c(NCc3ccccc3)nc(-n3c(N)nc4ccccc43)nc12
SB.mhdgc-1
  AC50 for growth inhibition (log10 M): -5.13
SB.msgc-1
  AC50 for growth inhibition (log10 M): -5.08

## COC1=CC2=C(C=C1OC)[C@H]3[C@@H](CO2)OC4=C(C=CC5=C4\C=C/C(C)(C)O5)C3=O [Deguelin]
SB.mhdgc-1
  AC50 for growth inhibition (log10 M): -5.38
SB.msgc-1
  AC50 for growth inhibition (log10 M): -5.23

## NC1(Cc2ccc(Cl)cc2)CCN(c2ncnc3[nH]ccc23)CC1
SB.mhdgc-1
  AC50 for growth inhibition (log10 M): -4.83
SB.msgc-1
  AC50 for growth inhibition (log10 M): -4.78

## Cc1cn[nH]c1 [Fomepizole]
SB.mhdgc-1
  AC50 for growth inhibition (log10 M): -6.68
SB.msgc-1
  AC50 for growth inhibition (log10 M): -7.18

## O=C(NCC1CCCCN1)c1cc(OCC(F)(F)F)ccc1OCC(F)(F)F (stereo unspecified) [Flecainide]
SB.mhdgc-1
  AC50 for growth inhibition (log10 M): -5.03
SB.msgc-1
  AC50 for growth inhibition (log10 M): -5.03

## Nc1nc(F)nc2c1ncn2[C@@H]1O[C@H](COP(=O)(O)O)[C@@H](O)[C@@H]1O [Fludarabine phosphate]
SB.mhdgc-1
  AC50 for growth inhibition (log10 M): -5.13
SB.msgc-1
  AC50 for growth inhibition (log10 M): -4.98

## Clc1ccc(C(c2ccccc2Cl)C(Cl)Cl)cc1 (stereo unspecified) [Mitotane]
SB.mhdgc-1
  AC50 for growth inhibition (log10 M): -4.88
SB.msgc-1
  AC50 for growth inhibition (log10 M): -4.73

## C[C@]12CC[C@@H]3c4ccc(O)cc4CC[C@H]3[C@@H]1[C@@H](O)[C@@H](O)[C@@H]2O [Estetrol]
SB.mhdgc-1
  AC50 for growth inhibition (log10 M): -4.88
SB.msgc-1
  AC50 for growth inhibition (log10 M): -4.68

## CC(C)n1cnc2c(NCCCCCCNC(=O)OC(C)(C)C)nc(NCCO)nc21 [CK59]
SB.mhdgc-1
  AC50 for growth inhibition (log10 M): -4.93
SB.msgc-1
  AC50 for growth inhibition (log10 M): -5.23

## Cc1cc(Nc2cc(CN3CCOCC3)c3nc(C)c(Cc4ccc(Cl)cc4F)n3n2)[nH]n1 [Gandotinib]
SB.mhdgc-1
  AC50 for growth inhibition (log10 M): -4.68
SB.msgc-1
  AC50 for growth inhibition (log10 M): -4.73

## CC(=O)O[C@@]12CO[C@@H]1C[C@H](O)[C@]3(C)[C@@H]2[C@H](OC(=O)C4=CC=CC=C4)[C@]5(O)C[C@H](O)/C(=C(/[C@@H](O)C3=O)C5(C)C)C [10-Deacetylbaccatin]
SB.mhdgc-1
  AC50 for growth inhibition (log10 M): -5.83
SB.msgc-1
  AC50 for growth inhibition (log10 M): -5.38

## C[C@@H]\1COC(=N1)\NC2=CC3=C(C=C2)N=CN=C3NC4=CC(=C(OCC5=NC=CS5)C=C4)Cl [Varlitinib tosylate]
SB.mhdgc-1
  AC50 for growth inhibition (log10 M): -6.63
SB.msgc-1
  AC50 for growth inhibition (log10 M): -6.53

## CN1CCC(CC1)COC2=CN=C(N=C2)C3=CC(=CC=C3)CN4/N=C(\C=C/C4=O)C5=CC(=CC=C5)C#N
SB.mhdgc-1
  AC50 for growth inhibition (log10 M): -7.48
SB.msgc-1
  AC50 for growth inhibition (log10 M): -6.78

## FC(F)c1nc2ccccc2n1-c1nc(N2CCOCC2)nc(N2CCOCC2)n1 [ZSTK-474]
SB.mhdgc-1
  AC50 for growth inhibition (log10 M): -6.48
SB.msgc-1
  AC50 for growth inhibition (log10 M): -5.98

## ClC1=CC=C(C=C1)C(C#N)C2=C(Cl)C=C(C=C2Cl)N3\N=C/C(=O)NC3=O (stereo unspecified) [Diclazuril]
SB.mhdgc-1
  AC50 for growth inhibition (log10 M): -4.78
SB.msgc-1
  AC50 for growth inhibition (log10 M): -4.73

## c1cc(OCCN2CCCCC2)cc(-c2n[nH]c3ccc(-c4nc[nH]n4)cc23)c1 [CC-401]
SB.mhdgc-1
  AC50 for growth inhibition (log10 M): -4.78
SB.msgc-1
  AC50 for growth inhibition (log10 M): -4.78

## Cn1cnc2c(F)c(Nc3ccc(Br)cc3Cl)c(C(=O)NOCCO)cc21 [Selumetinib]
SB.mhdgc-1
  AC50 for growth inhibition (log10 M): -5.38
SB.msgc-1
  AC50 for growth inhibition (log10 M): -5.18

## CN[C@@H](C)C(=O)N[C@H]1CCCC[C@H]2CC[C@@H](C(=O)N[C@@H](c3ccccc3)c3cn(CCCCc4ccc(CCCCn5cc([C@@H](NC(=O)[C@@H]6CC[C@@H]7CCCC[C@H](NC(=O)[C@H](C)NC)C(=O)N76)c6ccccc6)nn5)cc4)nn3)N2C1=O [SM-164]
SB.mhdgc-1
  AC50 for growth inhibition (log10 M): -5.88
SB.msgc-1
  AC50 for growth inhibition (log10 M): -4.68

## O=C1[C@H](Cc2ccc(O)cc2)N2C(=O)CCN(C(=O)NCc3ccccc3)[C@H]2CN1Cc1cccc2ccccc12 [ICG-001]
SB.mhdgc-1
  AC50 for growth inhibition (log10 M): -4.83
SB.msgc-1
  AC50 for growth inhibition (log10 M): -4.88

## Cc1c(C(=O)NN2CCCCC2)nn(-c2ccc(Cl)cc2Cl)c1-c1ccc(Cl)cc1 [Rimonabant]
SB.mhdgc-1
  AC50 for growth inhibition (log10 M): -4.78
SB.msgc-1
  AC50 for growth inhibition (log10 M): -4.63

## O=C1\C=C(/OC2=C1C=CC=C2C3=CC=CC=C3)N4CCOCC4
SB.mhdgc-1
  AC50 for growth inhibition (log10 M): -5.18
SB.msgc-1
  AC50 for growth inhibition (log10 M): -4.73

## CN1CCN(CCCN2c3ccccc3Sc3ccc(C(F)(F)F)cc32)CC1 [Stelazine  trifluoperzine]
SB.mhdgc-1
  AC50 for growth inhibition (log10 M): -5.63
SB.msgc-1
  AC50 for growth inhibition (log10 M): -5.08

## C=CC(=O)Nc1cccc(Oc2nc(Nc3ccc(N4CCN(C)CC4)cc3OC)ncc2Cl)c1 [WZ-4002]
SB.mhdgc-1
  AC50 for growth inhibition (log10 M): -4.83
SB.msgc-1
  AC50 for growth inhibition (log10 M): -7.78

## CN(CC(=O)N(Cc1ccc(C2CCCCC2)cc1)c1ccc(C(=O)O)c(O)c1)[S+](=O)([O-])c1c(F)c(F)c(F)c(F)c1F [BP-1-102]
SB.mhdgc-1
  AC50 for growth inhibition (log10 M): -4.58
SB.msgc-1
  AC50 for growth inhibition (log10 M): -4.73
